Laboratory results as given in patent publication US9840494B2, “Quinazoline derivative” (Tianjin Hemay Oncology Pharmaceutical Co., Ltd., priority 2013, dated 2017).
Read-outs that look alike come from different tables or passages of the source.

Assay: Bioavailability assay in rats, Experiment I (dihydrochloride)
Format: in vivo
Conditions: Wistar rats; for half-life: read-out: T½ elimination half-life (converted)
Procedure: Experiment I. Bioavailability Assay for N-[4-(3-chloro-4-fluorophenylamino)-7-(2-methoxyethoxy)quinazolin-6-yl]-2-[1-(2-methoxyethyl)piperidin-4-ylidene]acetamide Dihydrochloride in Rats
12 Wistar rats (male, weighing 200-220 g) were purchased from Beijing Vital River Laboratory Animal Technology Co., Ltd. License No.: SCXK (Beijing) 2007-0001.
2.1 30 mg of N-[4-(3-chloro-4-fluorophenylamino)-7-(2-methoxyethoxy)quinazolin-6-yl]-2-[1-(2-methoxyethyl)piperidin-4-ylidene]acetamide dihydrochloride was weighted, and 6 ml of ultrapure water was added thereto to prepare a sample solution (5 mg/ml)) for use in intravenous administration.
2.2 30 mg of N-[4-(3-chloro-4-fluorophenylamino)-7-(2-methoxyethoxy)quinazolin-6yl]-2-[1-(2-methoxyethyl)piperidin-4-ylidene]acetamide dihydrochloride was weighted, and 12 ml of ultrapure water was added thereto to prepare a sample solution (2.5 mg/ml)) for use in intragastric administration.
4.1.1 HPLC Conditions: chromatographic column: octadecyl-bonded silica gel as filler (4.6 mm×50 mm, 1.8 μm), Agilent; mobile phase: methanol: 5 mM ammonium acetate (PH4.0) (60: 40); flow rate: 1 ml/min; column temperature: 40° C.
Ion: 544.3→457.1 (N-[4-(3-chloro-4-fluorophenylamino)-7-(2-methoxyethoxy)quinazolin-6-yl]-2-[1-(2-methoxyethyl)piperidin-4-ylidene]acetamide dihydrochloride)
Dwell Time: 80; fragment voltage: 180; collision energy: 25;
1 mg of N-[4-(3-chloro-4-fluorophenylamino)-7-(2-methoxyethoxy)quinazolin-6-yl]-2-[1-(2-methoxyethyl)piperidin-4-ylidene]acetamide dihydrochloride was weighted and formulated into a solution in methanol (1 mg/ml)). The solution was then diluted stepwise into standard solutions of 50 ng/ml, 100 ng/ml, 200 ng/ml, 500 ng/ml, 1 μg/ml, 2 μg/ml, 5 μg/ml, 10 μg/ml, 20 μg/ml, 50 μg/ml, and 100 μg/ml. 10 μl of the standard solutions were separately pipetted into centrifuge tubes (1.5 ml). 10 μl of internal standard (1 μg/ml Lipitor solution in methanol) was added thereto. 100 μl of rat plasma was then added thereto. The mixture was vortexed. Then 200 μl of acetonitrile was added to precipitate protein, then vortexed for 1 min and centrifuged at 16000 r/min for 8 min 10 μl of the supernatant was directly injected for measurement.
12 rats were randomly divided into two groups, i.e. six rats per group. These rats were fasted and ad libitum accessed to water for 12 hours before administration. Blank blood (about 0.5 ml) of each rat was withdrawn, and then N-[4-(3-chloro-4-fluorophenylamino)-7-(2-methoxyethoxy)quinazolin-6-yl]-2-[1-(2-methoxyethyl)piperidin-4-ylidene]acetamide dihydrochloride (20 mg/kg) was administrated via intragastric gavage and tail intravenous injection, respectively. Blood (about 0.5 ml) was withdrawn from the orbital venous plexus at different time points after the administration (blood collection points for tail intravenous administration were: 5 min, 15 min, 0.5 h, 1 h, 2 h, 3 h, 4 h, 6 h, 8 h, 12 h, 18 h, 24 h, 30 h; and blood collection time-points for intragastric administration were: 5 min, 10 min, 20 min, 30 min, 45 min, 1 h, 2 h, 3 h, 4 h, 6 h, 8 h, 12 h, 18 h, 24 h, 30 h). The blood was drawn into a heparinized centrifuge tube and centrifuged at 8000 r/min for 10 min 100 μl of the plasma was pipetted into a centrifuge tube (1.5 ml), and 10 μl of internal standard (1 μg/ml atorvastatin hemi-calcium salt solution in methanol) was added thereto. The resulting mixture was vortexed. Then 200 μl of acetonitrile was added to precipitate protein, vortexed for 1 min and centrifuged at 16000 r/min for 8 min The supernatant was recovered, and 10 μl of the supernatant was directly injected for detection.
5.1 A standard curve with the natural logarithm of the sample concentration as abscissa and the natural logarithm of the peak area ratio of the sample to the internal standard as ordinate was established as: y=1.008x−4.149; R2=0.998
Method for the calculation of bioavailability: F=(AUCig×Div)/(AUCiv×Dig)×100% […]

[1] = male, rat, plasma, oral, 20 mg/kg ig, read-out: Average Plasma Drug Concentration
[2] = male, rat, plasma, po, 20 mg/kg ig
[3] = male, rat, plasma, 20 mg/kg iv, read-out: Average Plasma Drug Concentration

COCCOc1cc2ncnc(Nc3ccc(F)c(Cl)c3)c2cc1NC(=O)C=C1CCN(CCOC)CC1.Cl.Cl [Compound 2, N-[4-(3-chloro-4-fluorophenylamino)-7-(2-methoxyethoxy)quinazolin-6yl]-2-[1-(2-methoxyethyl)piperidin-4-ylidene]acetamide dihydrochloride]
K (elimination rate constant) (20 mg/kg iv): 0.14 | bioavailability (male, rat, plasma, oral, 20 mg/kg ig vs 20 mg/kg iv): 56.9% | concentration at 0.167 h (male, rat, plasma, oral, 20 mg/kg ig, 0.167 h, read-out: Average Plasma Drug Concentration): 39.4 ng/mL | concentration at 0.33 h (male, rat, plasma, oral, 20 mg/kg ig, 0.33 h, read-out: Average Plasma Drug Concentration): 145 ng/mL | concentration at 0.5 h [1]: 202 ng/mL | concentration at 0.75 h (male, rat, plasma, oral, 20 mg/kg ig, 0.75 h, read-out: Average Plasma Drug Concentration): 285 ng/mL | concentration at 1 h [1]: 342 ng/mL | concentration at 2 h [1]: 342 ng/mL | concentration at 3 h [1]: 406 ng/mL | concentration at 4 h [1]: 468 ng/mL | concentration at 6 h [1]: 536 ng/mL | concentration at 8 h [1]: 495 ng/mL | concentration at 12 h [1]: 330 ng/mL | concentration at 18 h [1]: 139 ng/mL | concentration at 24 h [1]: 72.4 ng/mL | concentration at 30 h [1]: 22.7 ng/mL | concentration at 0.083 h (male, rat, plasma, oral, 20 mg/kg intragastric gavage (ig), read-out: Average Plasma Drug Concentration): 17.1 ng/mL | AUC [2]: 7350 ng·h/mL | half-life [2]: 4.73 h | AUC (male, rat, plasma, 20 mg/kg iv): 12900 ng·h/mL | concentration at 0.25 h (male, rat, plasma, 20 mg/kg iv, 0.25 h, read-out: Average Plasma Drug Concentration): 3240 ng/mL | concentration at 0.5 h [3]: 2700 ng/mL | concentration at 1 h [3]: 1720 ng/mL | concentration at 2 h [3]: 1330 ng/mL | concentration at 3 h [3]: 989 ng/mL | concentration at 4 h [3]: 748 ng/mL | concentration at 6 h [3]: 557 ng/mL | concentration at 8 h [3]: 547 ng/mL | concentration at 12 h [3]: 325 ng/mL | concentration at 18 h [3]: 181 ng/mL | concentration at 24 h [3]: 80.8 ng/mL | concentration at 30 h [3]: 29.6 ng/mL | half-life (male, rat, plasma, 20 mg/kg iv): 5.18 h | concentration at 0.083 h (male, rat, plasma, 20 mg/kg tail intravenous injection (iv), read-out: Average Plasma Drug Concentration): 4850 ng/mL
